Results: article PMC11313965, “Bioactive Naphthoquinone and Phenazine Analogs from the Endophytic Streptomyces sp. PH9030 as α-Glucosidase Inhibitors” (Molecules, 2024)
Values after ≈ are worked out from the molar mass of the structure shown. Like-named read-outs stand apart in the source and are kept apart here.

Columns and labels:
[1] = system: breast (MDA MB-231) cancer cells; conditions: cited from earlier work
lung (A549) cancer cells = conditions: cited from earlier work
HeLa S3 cells = system: HeLa S3 cells; parameters: method as in PMID 2324009; conditions: cited from earlier work
Bacillus subrifis = system: Bacillus subrifis; parameters: method as in doi:10.1016/0040-4039(93)88010-G; conditions: cited from earlier work
[2] = system: Staphylococcus epidermidis ATCC 12228; parameters: method as in PMID 24389824; conditions: cited from earlier work
[3] = system: Staphylococcus aureus ATCC 25923; parameters: method as in PMID 24389824; conditions: cited from earlier work
[4] = system: Klebsiella pneumoniae ATCC 13883; assay: Antibacterial assay, broth dilution MIC; type: cell-based
Experimental: (§1) The MIC values of 5–12 against Staphylococcus aureus ATCC 29213, MRSA, Klebsiella pneumoniae ATCC 13883 and Pseudomonas aeruginosa ATCC 9027 were determined via a broth dilution assay in 96-well plates, with levofloxacin as a control (Table S7).
(§2) The broth dilution method was used to determine the minimum inhibitory concentrations (MICs). The details are described in the Supplementary Materials. […]
(§3) Compounds 5 – 12 were tested for antibacterial activity against Staphylococcus aureus ATCC 29213, methicillin-resistant Staphylococcus aureus (MRSA), Klebsiella pneumoniae ATCC 13883 and Pseudomonas aeruginosa ATCC 9027. The MICs were determined using broth dilution assay. The bacterial strains were cultured overnight and diluted to […] in Luria-Bertani (LB, Table S1) broth. 5 – 12 were dissolved in DMSO, serially diluted to 10 different concentrations (64, 32, 16, 8, 4, 2, 1, 0.5. 0.25, 0.125 μg/mL) using LB broth on the 96 well plate.
(§4) Levofloxacin (Bide Pharmatech Ltd., Shanghai, China) was dissolved in DMSO, serially diluted to 1 0 concentrations (0.125 –64 μg/mL) using LB broth on each 96-well plate. Then 100 μL LB broth containing compounds 5 – 12 or levofloxacin and 100 μL of bacterial solution were mixed per well. The plates were incubated at 37 °C for 18 h. Finally, 50 μL resazurin (Shanghai Macklin Biochemical Technology Co., Ltd., Shanghai, China) was added into each well to visualize the result. […]

[5] = system: methicillin-resistant Staphylococcus aureus (MRSA); assay: Antibacterial assay, broth dilution MIC; type: cell-based; conditions: 18 h
Experimental: as §1, §2, §3, §4

[6] = system: Pseudomonas aeruginosa ATCC 9027; assay: Antibacterial assay, broth dilution MIC; type: cell-based
Experimental: as §1, §2, §3, §4

[7] = system: Staphylococcus aureus ATCC 29213; assay: Antibacterial assay, broth dilution MIC; type: cell-based
Experimental: as §1, §2, §3, §4

α-glucosidase = α-glucosidase (Saccharomyces cerevisiae, UniProt P53341); assay: biochemical; conditions: read-out: IC50, α-glucosidase inhibitory activity
[8] = ATCC13883, Klebsiella pneumoniae ATCC 13883, 37 °C, 18 h, read-out: MIC
[9] = Staphylococcus aureus, 37 °C, read-out: MIC
[10] = ATCC9027, Pseudomonas aeruginosa ATCC 9027, 37 °C, 18 h, read-out: MIC
[11] = ATCC29213, Staphylococcus aureus ATCC 29213, 37 °C, 18 h, read-out: MIC

Chain of α-glucosidase (P53341 whole entry): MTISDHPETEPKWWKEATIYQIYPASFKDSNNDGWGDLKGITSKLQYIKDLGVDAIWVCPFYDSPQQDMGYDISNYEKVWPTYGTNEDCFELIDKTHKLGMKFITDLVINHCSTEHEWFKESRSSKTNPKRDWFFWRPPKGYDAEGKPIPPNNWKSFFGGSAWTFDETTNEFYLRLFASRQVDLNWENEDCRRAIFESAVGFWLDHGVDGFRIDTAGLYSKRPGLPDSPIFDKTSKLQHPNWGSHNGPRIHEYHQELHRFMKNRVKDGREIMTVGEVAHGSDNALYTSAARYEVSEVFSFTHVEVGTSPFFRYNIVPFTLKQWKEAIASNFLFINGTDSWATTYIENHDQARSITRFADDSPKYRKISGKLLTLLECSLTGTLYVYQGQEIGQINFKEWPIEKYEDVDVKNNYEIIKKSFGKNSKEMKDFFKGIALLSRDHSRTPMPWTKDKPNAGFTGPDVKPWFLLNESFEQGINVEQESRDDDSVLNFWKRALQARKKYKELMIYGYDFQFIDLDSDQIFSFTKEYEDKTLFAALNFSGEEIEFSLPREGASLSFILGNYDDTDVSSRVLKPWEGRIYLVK

Molecule | MIC [4, 8] [µg/mL] | MIC [5, 9] [µg/mL] | MIC [6, 10] [µg/mL] | MIC [7, 11] [µg/mL] | IC50 (α-glucosidase) [µM] | also measured
5-Methyl phenazine-1-carboxylic acid [Compound 4] |  |  |  |  |  | IC50 [1]: 0.4586 ± 0.00248 µM; IC50 (lung (A549) cancer cells): 0.4887 ± 0.00252 µM
CC1(C)OC2=C(C(=O)c3cc(O)cc(O)c3C2=O)[C@@H]2C=C(CO)CC[C@@H]21 [Compound 1, naphthgeranine B] |  |  |  |  |  | IC50, cytotoxic effect (HeLa S3 cells): 1.6 µg/mL (≈ 4.49 µM)
CC(C)=CCC[C@@]1(C)OC2=C(C(=O)c3c(Br)c(O)cc(O)c3C2=O)[C@@H]2C=C(C)CC[C@@H]21 [Compound 2, marinone] |  |  |  |  |  | MIC (Bacillus subrifis): 1 µg/mL (≈ 2.05 µM)
Oc1c(Br)ccc2nc3ccccc3nc12 [Compound 3, 2-Bromo-1-hydroxyphenazine] |  |  |  |  |  | MIC [2]: 1.72 µg/mL (≈ 6.25 µM); MIC [3]: 1.72 µg/mL (≈ 6.25 µM)
CC1=CC2C3=C(OC(C)(C)C2CC1O)C(=O)c1c(O)cc(O)cc1C3=O (stereo not shown) [Compound 5, naphthgeranine G] | > 64 | > 64 | > 64 | > 64 | 66.4 ± 6.7 | 
CC1=CC2C3=C(OC(C)(C)C2CC1O)C(=O)c1c(O)cc(O)cc1C3=O (stereo not shown) [Compound 6, 12-Hydroxy-naphthgeranine A] |  |  |  |  | 116 ± 4.4 | MIC ([4]; Klebsiella pneumoniae ATCC 13883, 37 °C, 18 h): > 64 µg/mL; MIC ([5]; 37 °C): > 64 µg/mL; MIC ([6]; Pseudomonas aeruginosa ATCC 9027, 37 °C, 18 h): > 64 µg/mL; MIC ([7]; Staphylococcus aureus ATCC 29213, 37 °C, 18 h): > 64 µg/mL
CC1=CC2C3=C(OC(C)(C)C2CC1)C(=O)c1c(O)cc(O)cc1C3=O (stereo not shown) [Compound 7, naphthgeranine A] | > 64 | > 64 | > 64 | > 64 | 185.9 ± 0.2 | 
O=C(O)c1cccc2c1Nc1ccccc1N2C(=O)CO [Compound 8, 5-(2-hydroxyacetyl)-5,10-dihydrophenazine-1-carboxylic acid] | > 64 | > 64 | > 64 | > 64 |  | 
NC(=O)c1cccc2nc3ccccc3nc12 [Compound 9, phenazine-1-carboxamide] | > 64 | 16 (≈ 71.7 µM) | > 64 | 64 (≈ 287 µM) | 105 ± 10.5 | 
O=C(O)c1cccc2nc3ccccc3nc12 [Compound 10, phenazine-1-carboxylic acid] |  |  |  |  | > 800 | MIC ([4]; Klebsiella pneumoniae, ATCC13883, 18 h): > 64 µg/mL; MIC ([5]; Staphylococcus aureus): > 64 µg/mL; MIC ([6]; Pseudomonas aeruginosa, ATCC9027, 18 h): > 64 µg/mL; MIC ([7]; Staphylococcus aureus, ATCC29213, 18 h): 32 µg/mL (≈ 143 µM)
COC(=O)c1cccc2nc3ccccc3nc12 [Compound 11, 1-carbomethoxyphenazine] | > 64 | > 64 |  |  |  | 
c1ccc2nc3ccccc3nc2c1 [Compound 12, phenazin] | > 64 | 16 (≈ 88.8 µM) |  |  |  | 
C[C@H]1COc2c(N3CCN(C)CC3)c(F)cc3c(=O)c(C(=O)O)cn1c23 [LEV, levofloxacin, reference compound] | 1 (≈ 2.77 µM) | 0.5 (≈ 1.38 µM) | 2 (≈ 5.53 µM) | 0.25 (≈ 0.692 µM) |  | 
